From patent US20220096379A1, “SELF-EMULSIFYING DRUG FORMULATION FOR IMPROVING MEMBRANE PERMEABILITY OF COMPOUND” (Chugai Seiyaku Kabushiki Kaisha, priority 2016, published 2022)
Read-outs that look alike come from different tables or passages of the source. Starred links: 1 amine or outer side, 2 acyl side, 3 side chain; linkers in the order of their positions; H or OH if unused. Positions of bridges follow the written chain, without caps; N, C: chain ends. Non-standard residues stand in square brackets, D forms with d. Residues, ends and D or L forms follow the SMILES beside them. *: point of attachment. NMeF = CN[C@@H](Cc1ccccc1)C(=O)O; NMeI = CC[C@H](C)[C@H](NC)C(=O)O; NMeβAla = CN(CCC(=O)[*:2])[*:1]; NMeL = CN[C@@H](CC(C)C)C(=O)O; NMeA = CN[C@@H](C)C(=O)O; Piperidide = C1CCN(*)CC1; Sar = CNCC(=O)O; tBu = CC(C)(C)*

Assays:
[1] = Log D (pH 7.4) measurement, n-octanol/buffer; settings: n-octanol/pH 7.4 buffer
Experimental: (§1) A two-phase separated solution of n-octanol and a pH 7.4 buffer was prepared, a DMSO solution of the drug was added to the prepared two-phase-separated solution. After shaking (room temperature, 1800 rpm, two hours), the solution was centrifuged (3000 rpm, ten minutes), only the buffer fractions were collected, and drug concentrations in the buffer fractions were measured by LC/MS. Log D (pH 7.4) was calculated from the measured drug concentrations.

[2] = Caco-2 membrane permeability evaluation (improved method, 20-24 h pre-incubation, 96-well); assay type: in vitro ADME; settings: human; for Papp at 180 min: commercially available middle molecular weight compounds; for Papp A→B at 180 min: cyclic peptides, pre-incubation 20-24 h, apical pH 6.0, basal pH 7.4 4% BSA
Experimental: After Caco-2 cells were cultured on a 96-well transwell for three weeks, DMEM+FaSSIF (1% DMSO)+the compound was added to the Apical side and DMEM was added to the Basal side, and this was pre-incubated under 5% CO2 at 37° C. and 80 rpm for 20 hours to 24 hours. After pre-incubation, the pre-incubation solutions on the Apical and Basal sides were removed by aspiration and washed, a permeability test was initiated by adding FaSSIF/HBSS buffer (pH 6.0) containing the compound to the Apical side and HBSS buffer (pH 7.4) containing 4% BSA to the Basal side. Each well was shaken under 5% CO2, at 37° C. and 80 rpm. […] The permeability coefficient was calculated from the amount of permeation.
More specifically, after Caco-2 cells were cultured on a 96-well transwell for three weeks, DMEM+FaSSIF (1% DMSO)+the compound was added to the Apical side and DMEM was added to the Basal side, and this was pre-incubated at 5% CO2, 37° C., and 80 rpm for 20 hours to 24 hours. After pre-incubation, the pre-incubation solutions on the Apical side and on the Basal side were removed by aspiration and washed, FaSSIF/HBSS buffer (1% DMSO) (pH 6.0) containing the compound was added to the Apical side, and HBSS buffer (4% BSA) (pH 7.4) was added to the Basal side, and membrane permeability assays were initiated. […] From the amount of permeation, the membrane permeability coefficient (Papp) was calculated.

[3] = cited from earlier work
physchem = settings: pH 7.4
Experimental: as §1

Caco-2 cells = settings: cited from earlier work; for decrease in the concentration on the Apical side: 120 minutes of incubation

Compound | logD [1] | Papp at 180 min [2] [×10⁻⁶ cm/s] | also measured
CC(=O)O[C@H]1C(=O)[C@@]2(C)[C@H]([C@H](OC(=O)c3ccccc3)[C@]3(O)C[C@H](OC(=O)[C@H](O)[C@@H](NC(=O)c4ccccc4)c4ccccc4)C(C)=C1C3(C)C)[C@]1(OC(C)=O)CO[C@@H]1C[C@@H]2O [Paclitaxel] | 3.36 | 0.138 | –
CO[C@H]1/C=C/O[C@@]2(C)Oc3c(C)c(O)c4c(O)c(c(/C=N/N5CCN(C6CCCC6)CC5)c(O)c4c3C2=O)NC(=O)/C(C)=C\C=C\[C@H](C)[C@H](O)[C@@H](C)[C@@H](O)[C@@H](C)[C@H](OC(C)=O)[C@@H]1C [Rifapentine] | 2.45 | 5.12 | –
CC[C@H](C)[C@H]1C(=O)N[C@H](C(=O)N2CCCCC2)CC(=O)N[C@H](C(C)C)C(=O)N(C)[C@@H](Cc2ccccc2)C(=O)N(C)[C@@H](CC(C)C)C(=O)N[C@@H]([C@@H](C)O)C(=O)N(C)CC(=O)N(C)[C@@H](CC(C)C)C(=O)N[C@@H](COC(C)(C)C)C(=O)N1C [Compound (5)] ([dV][NMeF][NMeL]T[Sar][NMeL]S(tBu)[NMeI]D-Piperidide; lactam N-9) | – | – | logD at 2 h [1]: 4.31; intrinsic hepatic clearance CLh int ([3]; human liver microsomes): 58 μL/min/mg protein; Papp A→B at 180 min [2]: 1.85 ×10⁻⁶ cm/s
CO[C@H]1/C=C/O[C@@]2(C)Oc3c(C)c(O)c4c(c3C2=O)C2=NC3(CCN(CC(C)C)CC3)NC2=C(NC(=O)/C(C)=C\C=C\[C@H](C)[C@H](O)[C@@H](C)[C@@H](O)[C@@H](C)[C@H](OC(C)=O)[C@@H]1C)C4=O [Rifabutin] | 3.88 | 1.08 | –
CC(C)C[C@H]1C(=O)N(C)[C@@H](CC(C)C)C(=O)N[C@H](C(=O)N2CCCCC2)CC(=O)N(C)CCC(=O)N(C)[C@@H](Cc2ccccc2)C(=O)N[C@@H]([C@@H](C)O)C(=O)N(C)CC(=O)N[C@@H](COC(C)(C)C)C(=O)N1C [Compound (6)] ([NMeβAla][NMeF]T[Sar]S(tBu)[NMeL][NMeL]D-Piperidide; lactam N-8) | – | – | logD at 2 h (physchem): 3.19; intrinsic hepatic clearance CLh int ([3]; human, microsomes): 86 μL/min/mg protein
C=CC[C@@H]1/C=C(\C)C[C@H](C)C[C@H](OC)[C@H]2O[C@@](O)(C(=O)C(=O)N3CCCC[C@H]3C(=O)O[C@H](/C(C)=C/[C@@H]3CC[C@@H](O)[C@H](OC)C3)[C@H](C)[C@@H](O)CC1=O)[C@H](C)C[C@@H]2OC [Tacrolimus] | 4.19 | 2.48 | –
C[C@@H]1[C@H](O)[C@@H](C)/C=C/C=C/C=C/C=C/C=C/C=C/C=C/[C@H](O[C@@H]2O[C@H](C)[C@@H](O)[C@H](N)[C@@H]2O)C[C@@H]2O[C@](O)(C[C@@H](O)C[C@@H](O)[C@H](O)CC[C@@H](O)C[C@@H](O)CC(=O)O[C@H]1C)C[C@H](O)[C@H]2C(=O)O [AmphotericinB] | 0.11 | 0.0736 | –
CC[C@H](C)[C@H]1C(=O)N[C@@H](COC(C)(C)C)C(=O)N[C@H](C(=O)N2CCCCC2)CC(=O)N(C)[C@@H](C)C(=O)N(C)[C@@H](Cc2ccccc2)C(=O)N(C)CC(=O)N(C)[C@@H](CC(C)C)C(=O)N[C@@H]([C@@H](C)O)C(=O)N(C)[C@@H](C)C(=O)N(C)[C@@H](CC(C)C)C(=O)N1C [Compound (2)] ([NMeA][NMeF][Sar][NMeL]T[NMeA][NMeL][NMeI]S(tBu)D-Piperidide; lactam N-10) | – | – | logD at 2 h (physchem): 4.43; intrinsic hepatic clearance CLh int ([3]; human liver microsomes): 48 μL/min/mg protein
CC[C@H]1OC(=O)[C@H](C)[C@@H](O[C@H]2C[C@@](C)(OC)[C@@H](O)[C@H](C)O2)[C@H](C)[C@@H](O[C@@H]2O[C@H](C)C[C@H](N(C)C)[C@H]2O)[C@](C)(O)C[C@@H](C)/C(=N\OCOCCOC)[C@H](C)[C@@H](O)[C@]1(C)O [Roxithromycin] | 2.04 | 0.108 | –
CC[C@H]1OC(=O)[C@H](C)[C@@H](O[C@H]2C[C@@](C)(OC)[C@@H](O)[C@H](C)O2)[C@H](C)[C@@H](O[C@@H]2O[C@H](C)C[C@H](N(C)C)[C@H]2O)[C@](C)(O)C[C@@H](C)CN(C)[C@H](C)[C@@H](O)[C@]1(C)O [Azithromycin] | 0.62 | 0.515 | –
CC[C@H]1OC(=O)[C@H](C)[C@@H](O[C@H]2C[C@@](C)(OC)[C@@H](O)[C@H](C)O2)[C@H](C)[C@@H](O[C@@H]2O[C@H](C)C[C@H](N(C)C)[C@H]2O)[C@](C)(O)C[C@@H](C)C(=O)[C@H](C)[C@@H](O)[C@]1(C)O [Erythromycin] | 0.89 | 0.382 | –
CCC(C)n1ncn(-c2ccc(N3CCN(c4ccc(OCC5COC(Cn6cncn6)(c6ccc(Cl)cc6Cl)O5)cc4)CC3)cc2)c1=O (stereo not drawn) [Itraconazole] | 4.29 | 1.06 | –
CC(C)c1nc(CN(C)C(=O)N[C@H](C(=O)N[C@@H](Cc2ccccc2)C[C@H](O)[C@H](Cc2ccccc2)NC(=O)OCc2cncs2)C(C)C)cs1 [Ritonavir] | 4.29 | 1.74 | –
CC[C@H](C)[C@H]1C(=O)N(C)[C@@H](C)C(=O)N(C)[C@@H](Cc2ccccc2)C(=O)N[C@@H]([C@@H](C)O)C(=O)N(C)[C@@H](Cc2ccccc2)C(=O)N(C)[C@@H](CC(C)C)C(=O)N2CCC[C@H]2C(=O)N[C@H](C(=O)N2CCCCC2)CC(=O)N[C@@H](C)C(=O)NCC(=O)N(C)[C@@H](CC(C)C)C(=O)N1C [Compound (1)] (AG[NMeL][NMeI][NMeA][NMeF]T[NMeF][NMeL]PD-Piperidide; lactam N-11) | – | – | logD at 2 h (physchem): 5.19; intrinsic hepatic clearance CLh int ([3]; human liver microsomes): 74 μL/min/mg protein; Papp A→B at 180 min [2]: 0.262 ×10⁻⁶ cm/s
CC[C@H]1OC(=O)[C@H](C)C(=O)[C@H](C)[C@@H](O[C@@H]2O[C@H](C)C[C@H](N(C)C)[C@H]2O)[C@](C)(OC)C[C@@H](C)C(=O)[C@H](C)[C@H]2N(CCCCn3cnc(-c4cccnc4)c3)C(=O)O[C@]12C [Telithromycin] | 2.1 | 0.319 | –
CC(C)NCC(O)COc1cccc2ccccc12 (stereo not drawn) [propranolol] | – | – | decrease in the concentration on the Apical side (Caco-2 cells): approximately 40%; added drug distributed in the cells after completion of incubation (Caco-2 cells): approximately 8%
CO[C@H]1/C=C/O[C@@]2(C)Oc3c(C)c(O)c4c(O)c(c(/C=N/N5CCN(C)CC5)c(O)c4c3C2=O)NC(=O)/C(C)=C\C=C\[C@H](C)[C@H](O)[C@@H](C)[C@@H](O)[C@@H](C)[C@H](OC(C)=O)[C@@H]1C [Rifampicin] | 1.61 | 1.73 | –
COCCc1ccc(OCC(O)CNC(C)C)cc1 (stereo not drawn) [metoprolol] | – | – | decrease in the concentration on the Apical side (Caco-2 cells): approximately 20%
CC(C)C[C@@H]1NC(=O)[C@H](Cc2ccccc2)N(C)C(=O)[C@H](Cc2ccccc2)N(C)C(=O)[C@H](CC(C)C)NC(=O)[C@H](C)N(C)C(=O)[C@H]([C@@H](C)O)NC(=O)[C@H](C)N(C)C(=O)C[C@@H](C(=O)N2CCCCC2)NC(=O)[C@H](CC(C)C)N(C)C1=O [Compound (4)] ([NMeA]T[NMeA]L[NMeF][NMeF]L[NMeL]D-Piperidide; lactam N-9) | – | – | logD at 2 h [1]: 5.17; intrinsic hepatic clearance CLh int ([3]; human liver microsomes): 189 μL/min/mg protein; Papp A→B at 180 min [2]: 4.14 ×10⁻⁶ cm/s
C[C@H]1O[C@@H](O[C@H]2[C@@H](O)C[C@H](O[C@H]3[C@@H](O)C[C@H](O[C@H]4CC[C@@]5(C)[C@H](CC[C@@H]6[C@@H]5C[C@@H](O)[C@]5(C)[C@@H](C7=CC(=O)OC7)CC[C@]65O)C4)O[C@@H]3C)O[C@@H]2C)C[C@H](O)[C@@H]1O [Digoxin] | – | 0.264 | –
CO[C@H]1C[C@@H]2CC[C@@H](C)[C@@](O)(O2)C(=O)C(=O)N2CCCC[C@H]2C(=O)O[C@H]([C@H](C)C[C@@H]2CC[C@@H](O)[C@H](OC)C2)CC(=O)[C@H](C)/C=C(\C)[C@@H](O)[C@@H](OC)C(=O)[C@H](C)C[C@H](C)/C=C/C=C/C=C/1C [Rapamycin] | 4.36 | 1.84 | –
CC[C@H](C)[C@H]1C(=O)N[C@H](C(=O)N2CCCCC2)CC(=O)N[C@H](C(C)C)C(=O)N(C)[C@@H](CC(C)C)C(=O)N(C)[C@@H](Cc2ccccc2)C(=O)N(C)[C@@H](C)C(=O)N[C@@H]([C@@H](C)O)C(=O)N(C)CC(=O)N(C)[C@@H](CC(C)C)C(=O)N[C@@H](COC(C)(C)C)C(=O)N1C [Compound (3)] ([dV][NMeL][NMeF][NMeA]T[Sar][NMeL]S(tBu)[NMeI]D-Piperidide; lactam N-10) | – | – | logD at 2 h (physchem): 4.18; intrinsic hepatic clearance CLh int ([3]; human liver microsomes): 46 μL/min/mg protein; Papp A→B at 180 min [2]: 0.249 ×10⁻⁶ cm/s
CCC1=C[C@@H]2CN(C1)Cc1c([nH]c3ccccc13)[C@@](C(=O)OC)(c1cc3c(cc1OC)N(C)[C@H]1[C@@](O)(C(=O)OC)[C@H](OC(C)=O)[C@]4(CC)C=CCN5CC[C@]31[C@@H]54)C2 [Vinorelbine] | 2.82 | 0.0903 | –
